Data published in patent US20050222383A1, “Prostasin substrates and inhibitors” (IRM LLC, priority 2004, published 2005).
Each block holds one molecule with its values, some of them ahead of it.

What was measured:
[1] = biological target: T1, prostasin (Homo sapiens, UniProt Q16651); test: Cation/anion inhibition of prostasin activity against Ac-KHYR-acc; format: biochemical; conditions: read-out: Inhibition constants
T1 construct: eliminate the N-terminal signal peptide domain and light chain and the C-terminal GPI signal domain; honeybee melittin signal peptide (21 aa) (N); made in house; host or cells: Sf9 insect cells, baculovirus (Bac-to-Bac, pFastBac1)

[2] = biological target: T1, prostasin; test: Prostasin assayed in tetrapeptide substrate libraries with a set concentration of sodium, calcium or zinc; format: biochemical; conditions: for effect on substrate specificity profile / decrease in activity across the libraries: tetrapeptide substrate libraries; for decrease in activity across the libraries: set concentration of ion
Experimental: P1-P4-Fluorogenic substrate libraries were synthesized as previously described (Wang et al, J. Biol. Chem., 278: 15800-15808, 2003). Prostasin was diluted in assay buffer and added to the library plates. In the two-position fixed tetrapeptide substrate library, the final substrate concentration was approximately 0.25 μM/substrate/well with a total of 361 substrates per well. Each variable position had one of 19 amino acids with cysteine excluded and methionine replaced by its isostere norleucine.
Further, prostasin was assayed in the tetrapeptide substrate libraries with a set concentration of sodium, calcium or zinc to determine the effect of each on overall substrate specificity.

[3] = biological target: T1, prostasin; test: Assays with transition metals, prostasin activity with Ac-KHYR-acmc; format: biochemical; conditions: for enhancement effect: increase of enzymatic activity: Ac-KHYR-acmc substrate, sub inhibitory metal ion concentrations; for increases in IC50 values: assays with KHYR substrate
Experimental: (§1) Proteolytic activity of the purified prostasin was monitored by measuring the accumulation of the fluorophore 7-amino-3-carbamoylmethyl-4-methylcoumarin (acmc) or 7-amino-4-carbamoylmethylcoumarin (acc) produced by the cleavage of the tetrapeptide substrate Ac-KHYR-acmc, Ac-KHYR-acc or Ac-PRLR-acmc in assay buffer (50 mM Tris-Cl pH 9.0, 0.25% CHAPS; 10 mM CHES pH 9.0 (37° C.), 0.25% CHAPS; or 10 mM Hepes pH 7.4 (37° C.), 0.25% CHAPS) at 37° C. Assays were run in 96 or 384-well black microtiter plates. Data was collected with a Gemini XS plate reader (Molecular Devices) at λex=380 nm and λem=450 nm.

[4] = biological target: T1, prostasin; test: Michaelis-Menten kinetics of KHYR-acmc and PRLR-acmc in the presence of zinc; format: biochemical
Experimental: as §1
The effect of zinc on the Michelis-Menten kinetics of KHYR-acmc and PRLR-acmc was measured in the presence of 20 μM zinc(II). […] The kcat of KHYR-acmc was 2.7 fold higher and the kcat of PRLR-acmc was 1.6 fold lower. These changes translated into a 30-fold increase in specificity for KHYR over PRLR in the presence of zinc.

[5] = biological target: T1, prostasin; test: Inhibition assays of macromolecular inhibitors, prostasin activity against Ac-KHYR-acmc; format: biochemical; conditions: Ac-KHYR-acmc substrate, Tris-CHAPS buffer; read-out: classical inhibition constants (Ki)
Experimental: as §1
The inhibition constants of macromolecular inhibitors were calculated for prostasin. Prostasin activity against Ac-KHYR-acmc was measured in Tris-CHAPS buffer, as in “Enzyme Assays,” in the presence of 10 μM-170 pM aprotinin and soybean trypsin inhibitor (SBTI), 1 μM-17 pM α1-antitrypsin, and 200 nM-3.3 pM α1-antichymotrypsin. Rates were plotted in Prism (GraphPad) and classical inhibition constants (Ki) were calculated using the results of non-linear regression.

[6] = tested on: Xenopus kidney epithelial cell line; conditions: exposure of the apical membrane; cited from earlier work
[7] = Ac-KHYR-acc substrate, CHES-CHAPS buffer, 37° C.
[8] = in the presence of 20 μM zinc(II)

T1 sequence (Q16651 45-322 limits assumed): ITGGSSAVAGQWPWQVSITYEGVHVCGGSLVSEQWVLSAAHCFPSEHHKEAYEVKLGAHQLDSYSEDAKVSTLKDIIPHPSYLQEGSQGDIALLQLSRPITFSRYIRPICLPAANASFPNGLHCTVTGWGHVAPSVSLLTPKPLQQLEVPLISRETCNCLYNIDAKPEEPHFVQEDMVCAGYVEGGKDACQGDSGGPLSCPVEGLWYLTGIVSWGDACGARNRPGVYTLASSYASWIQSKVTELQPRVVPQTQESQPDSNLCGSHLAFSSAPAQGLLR

Molecule: [Ca+2].[Cl-].[Cl-] [CaCl2]
Ki [1, 7]: 0.26 mM

Molecule: [Cl-].[Cl-].[Co+2] [CoCl2]
Ki [1]: 0.005 mM

Molecule: [Cl-].[K+] [KCl]
Ki [1, 7]: 5.8 mM

Molecule: [Cl-].[Li+] [LiCl]
Ki [1, 7]: 2.4 mM

Ki [1, 7]: 0.39 mM
Molecule: [Cl-].[Cl-].[Mg+2] [MgCl2]

Molecule: [Cl-].[Na+] [NaCl]
Ki [1]: 5.3 mM

Molecule: [F-].[Na+] [NaF]
Ki [1, 7]: 4.2 mM

Molecule: [I-].[Na+] [NaI]
Ki [1, 7]: 4.5 mM

Molecule: [Ca+2] [calcium]
effect on substrate specificity profile [2]: Neither sodium nor calcium changed the substrate profile
decrease in activity across the libraries [2]: 25-35%

Molecule: [Co+2] [cobalt]
enhancement effect: increase of enzymatic activity [3]: No enhancement in activity
increases in IC50 values [3]: 10 fold

Molecule: [Cu+2] [copper]
increases in IC50 values [3]: 25 fold

Molecule: [Ni+2] [nickel]
enhancement effect: increase of enzymatic activity [3]: 1.4 fold
increases in IC50 values [3]: 100 fold

Molecule: [Na+] [sodium]
effect on substrate specificity profile [2]: Neither sodium nor calcium changed the substrate profile
decrease in activity across the libraries [2]: 50-60%

Molecule: [Zn+2] [zinc]
increases in IC50 values [3]: 200 fold
relative increase in the activity of substrates with arginine in P1 and histidine in P3 ([2]; P1-P3 library): three fold relative increase
effect on substrate specificity profile [2]: did not alter the specificity profiles

decrease in the Km [4, 8]: 4 fold
kcat higher [4, 8]: 2.7 fold
increase in specificity for KHYR over PRLR ([4]; in the presence of zinc): 30 fold
Molecule: Ac-KHYR-acmc

increase in the Km [4, 8]: 2 fold
kcat lower [4, 8]: 1.6 fold
Molecule: Ac-PRLR-acmc

Ki [5]: 2.5 nM
Molecule: aprotinin
transepithelial sodium transport [6]: reduces transepithelial sodium transport

Ki [5]: > 200 nM
B1: α1-antichymotrypsin (protein, UniProt P01011 24-423, looked up)
Alpha-1-antichymotrypsin: HPNSPLDEENLTQENQDRGTHVDLGLASANVDFAFSLYKQLVLKAPDKNVIFSPLSISTALAFLSLGAHNTTLTEILKGLKFNLTETSEAEIHQSFQHLLRTLNQSSDELQLSMGNAMFVKEQLSLLDRFTEDAKRLYGSEAFATDFQDSAAAKKLINDYVKNGTRGKITDLIKDLDSQTMMVLVNYIFFKAKWEMPFDPQDTHQSRFYLSKKKWVMVPMMSLHHLTIPYFRDEELSCTVVELKYTGNASALFILPDQDKMEEVEAMLLPETLKRWRDSLEFREIGELYLPKFSISRDYNLNDILLQLGIEEAFTSKADLSGITGARNLAVSQVVHKAVLDVFEEGTEASAATAVKITLLSALVETRTIVRFNRPFLMIIVPTDTQNIFFMSKVTNPKQA
